Laboratory results published in US11690850B2, “Inhibitors of receptor interacting protein kinase I for the treatment of disease” (Board of Regents, The University of Texas System, priority 2019, dated 2023).

What was measured:
RIPK1 = RIPK1 (Homo sapiens (Human), UniProt Q13546); experiment: ADP-Glo Kinase Assay; type: biochemical; conditions: 5 nM RIPK1 protein, 50 μM ATP, 6 hr reaction, average value across multiple runs
How it was run: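 ADP formed from ATP is measured by ADP-Glo luminescence with 5 nM RIPK1, preincubated 10 min with compound, then 50 μM ATP for 6 h. Buffer is 50 mM HEPES pH 7.5, 50 mM NaCl, 30 mM MgCl2, 1 mM DTT, 0.05% BSA, 0.02% CHAPS. IC50 comes from a four-parameter fit, averaged over runs.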

[1] = tested on: human monocytic cell line U937; experiment: Human U937 Cellular Necroptosis Assay; type: cell-based; conditions: U-937; U937 cells stimulated with 25 ng/mL human TNFalpha and 25 μM z-VAD-FMK, 22 hr, viability by Cell Titer-Glo 2.0; average value across multiple runs; read-out: hU937 IC50
Protocol: Human U937 Cellular Necroptosis Assay
The human monocytic cell line U937 (CRL-1593.2) was purchased from ATCC. The cells were routinely maintained in RPMI-1640 Medium (Gibco, Catalog #11875-093) supplemented with 10% heat inactivated fetal bovine serum (Gibco, Catalog #16140-071), 100 units/mL penicillin and 100 μg/mL streptomycin (Gibco, Catalog #15140-122), in a humidified incubator (37° C., 5% CO2). For the assay, cells were resuspended in RPMI-1640 phenol red free Media (Gibco, Catalog #11835-030) supplemented with 10% fetal bovine serum (Sigma, Catalog #F2442), 100 units/mL penicillin and 100 ug/mL streptomycin. Cells were stimulated with 25 ng/mL human TNFalpha (Cell Sciences, Catalog #CSI15659B) and 25 μM z-VAD-FMK (R&D Systems, Catalog #FMK001) followed by seeding 5000 cells per well in a volume of 40 μL to a white, CulturPlate-384 (Perkin Elmer, Catalog #6007680). Stock solutions of the test compounds were prepared in 100% DMSO (Sigma, Catalog #D2650) and serially diluted 1:3 using 100% DMSO. Compounds were additionally diluted 1:40 in assay medium, and 10 μL/well was transferred to the plate. Following the compound addition the plate was incubated at 37° C. and 5% CO2 for 22 hr. After 22 hr, viability was assessed with the addition of 20 μL of Cell Titer-Glo 2.0 (Promega, Catalog #G9243). The tissue culture plate was shaken on an orbital shaker at 300 RPM for 15 minutes at room temperature in the dark. Luminescence was measured using a PerkinElmer Envision™ plate reader. IC50 values were calculated using a four-parameter logistic curve fit using Genedata Screener software. Results are shown below in Table 5, where the average value across multiple runs is given.

Sequence of RIPK1 (Q13546 1-327): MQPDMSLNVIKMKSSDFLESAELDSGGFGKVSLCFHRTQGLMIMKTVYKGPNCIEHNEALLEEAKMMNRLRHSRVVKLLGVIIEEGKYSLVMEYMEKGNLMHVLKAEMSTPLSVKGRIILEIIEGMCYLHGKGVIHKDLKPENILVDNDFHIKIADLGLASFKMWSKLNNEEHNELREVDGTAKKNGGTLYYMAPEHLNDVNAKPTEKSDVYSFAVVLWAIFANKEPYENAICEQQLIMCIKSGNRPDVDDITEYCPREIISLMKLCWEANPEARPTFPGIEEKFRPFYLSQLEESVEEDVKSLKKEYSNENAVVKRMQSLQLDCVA

SMILES	IC50 (RIPK1) [µM]	IC50 [1] [µM]
Cc1cc(=O)c(C(=O)Nc2cc(Cl)c3c(c2)NC(=O)C3)nn1-c1ccccc1 [Example 32, N-(4-chloro-2-oxoindolin-6-yl)-6-methyl-4-oxo-1-phenyl-1,4-dihydropyridazine-3-carboxamide]	2.25	5.83
Cc1cc(=O)c(C(=O)Nc2c3ccccc3nc3ccccc23)nn1-c1ccccc1 [Example 33, N-(acridin-9-yl)-6-methyl-4-oxo-1-phenyl-1,4-dihydropyridazine-3-carboxamide]	2.19	8.49
Cc1cc(=O)c(C(=O)NC2CCc3ccccc3NC2=O)nn1-c1ccccc1 (centres unmarked) [Example 38, 6-Methyl-4-oxo-N-(2-oxo-2,3,4,5-tetrahydro-1H-benzo[b]azepin-3-yl)-1-phenyl-1,4-dihydropyridazine-3-carboxamide]	0.057	0.082
Cc1c(Cl)c(=O)c(C(=O)NC2CCc3ccccc3NC2=O)nn1-c1ccccc1 (centres unmarked) [Example 39, 5-Chloro-6-methyl-4-oxo-N-(2-oxo-2,3,4,5-tetrahydro-1H-benzo[b]azepin-3-yl)-1-phenyl-1,4-dihydropyridazine-3-carboxamide]	0.018	0.069
Cc1c(Cl)c(=O)c(C(=O)NC2CCc3cc(Cl)ccc3NC2=O)nn1-c1ccccc1 (centres unmarked) [Example 40, 5-Chloro-N-(7-chloro-2-oxo-2,3,4,5-tetrahydro-1H-benzo[b]azepin-3-yl)-6-methyl-4-oxo-1-phenyl-1,4-dihydropyridazine-3-carboxamide]	0.036	0.047
Cc1cc(=O)c(C(=O)NC2CCc3ccccc3N(C)C2=O)nn1-c1ccccc1 (centres unmarked) [Example 41, 6-methyl-N-(1-methyl-2-oxo-2,3,4,5-tetrahydro-1H-benzo[b]azepin-3-yl)-4-oxo-1-phenyl-1,4-dihydropyridazine-3-carboxamide]	0.035	0.039
Cc1c(Br)c(=O)c(C(=O)NC2CCc3ccccc3NC2=O)nn1-c1ccccc1 (centres unmarked) [Example 42, 5-Bromo-6-methyl-4-oxo-N-(2-oxo-2,3,4,5-tetrahydro-1H-benzo[b]azepin-3-yl)-1-phenyl-1,4-dihydropyridazine-3-carboxamide]	0.036	0.141
Cc1c(Br)c(=O)c(C(=O)NC2CCc3cc(Br)ccc3NC2=O)nn1-c1ccccc1 (centres unmarked) [Example 43, 5-Bromo-N-(7-bromo-2-oxo-2,3,4,5-tetrahydro-1H-benzo[b]azepin-3-yl)-6-methyl-4-oxo-1-phenyl-1,4-dihydropyridazine-3-carboxamide]	0.023	0.048
Cc1c(Br)c(=O)c(C(=O)NC2CCc3cc(C#N)ccc3NC2=O)nn1-c1ccccc1 (centres unmarked) [Example 44, 5-Bromo-N-(7-cyano-2-oxo-2,3,4,5-tetrahydro-1H-benzo[b]azepin-3-yl)-6-methyl-4-oxo-1-phenyl-1,4-dihydropyridazine-3-carboxamide]	0.062	0.16
Cc1c(Cl)c(=O)c(C(=O)NC2CCc3cc(Cl)ccc3N(C)C2=O)nn1-c1ccccc1 (centres unmarked) [Example 45, 5-Chloro-N-(7-chloro-1-methyl-2-oxo-2,3,4,5-tetrahydro-1H-benzo[b]azepin-3-yl)-6-methyl-4-oxo-1-phenyl-1,4-dihydropyridazine-3-carboxamide]	0.028	0.072
Cc1c(C#N)c(=O)c(C(=O)NC2CCc3ccccc3N(C)C2=O)nn1-c1ccccc1 (centres unmarked) [Example 47, 5-Cyano-6-methyl-N-(1-methyl-2-oxo-2,3,4,5-tetrahydro-1H-benzo[b]azepin-3-yl)-4-oxo-1-phenyl-1,4-dihydropyridazine-3-carboxamide]	0.072	0.086
Cc1cc(=O)c(C(=O)NC2CCc3cc(F)cc(F)c3NC2=O)nn1-c1ccccc1 (centres unmarked) [Example 48, N-(7,9-difluoro-2-oxo-2,3,4,5-tetrahydro-1H-benzo[b]azepin-3-yl)-6-methyl-4-oxo-1-phenyl-1,4-dihydropyridazine-3-carboxamide]	0.051	0.07
Cc1cc(=O)c(C(=O)NC2CCc3cc(F)cc(F)c3N(C)C2=O)nn1-c1ccccc1 (centres unmarked) [Example 49, N-(7,9-difluoro-1-methyl-2-oxo-2,3,4,5-tetrahydro-1H-benzo[b]azepin-3-yl)-6-methyl-4-oxo-1-phenyl-1,4-dihydropyridazine-3-carboxamide]	0.064	0.066
Cc1cc(=O)c(C(=O)N[C@H]2COc3cccnc3N(C)C2=O)nn1-c1ccccc1 [Example 50, (S)-6-methyl-N-(5-methyl-4-oxo-2,3,4,5-tetrahydropyrido[3,2-b][1,4]oxazepin-3-yl)-4-oxo-1-phenyl-1,4-dihydropyridazine-3-carboxamide]	0.028	0.033
Cc1ccc(-n2nc(C(=O)NC3CCc4ccccc4NC3=O)c(=O)cc2C)cn1 (centres unmarked) [Example 51, 6-methyl-1-(6-methylpyridin-3-yl)-4-oxo-N-(2-oxo-2,3,4,5-tetrahydro-1H-benzo[b]azepin-3-yl)-1,4-dihydro-pyridazine-3-carboxamide]	1.97	1.7
Cc1cc(=O)c(C(=O)NC2CCc3ccccc3NC2=O)nn1-c1cccc(C#N)c1 (centres unmarked) [Example 53, 1-(3-cyanophenyl)-6-methyl-4-oxo-N-(2-oxo-2,3,4,5-tetrahydro-1H-benzo[b]azepin-3-yl)-1,4-dihydropyridazine-3-carboxamide]	0.652	0.591
Cc1cc(=O)c(C(=O)NC2CCc3ccccc3NC2=O)nn1-c1cccc(F)c1 (centres unmarked) [Example 54, 1-(3-fluorophenyl)-6-methyl-4-oxo-N-(2-oxo-2,3,4,5-tetrahydro-1H-benzo[b]-azepin-3-yl)-1,4-dihydropyridazine-3-carboxamide]	0.027	0.053
Cc1cc(=O)c(C(=O)N[C@H]2COc3cc(C#N)ccc3N(C)C2=O)nn1-c1ccccc1 [Example 55, (S)-N-(8-cyano-5-methyl-4-oxo-2,3,4,5-tetrahydrobenzo[b][1,4]oxazepin-3-yl)-6-methyl-4-oxo-l-phenyl-1,4-dihydropyridazine-3-carboxamide]	0.033	0.054
Cc1cc(=O)c(C(=O)NC2CCc3ccccc3NC2=O)nn1-c1ccc(C#N)cc1 (centres unmarked) [Example 56, 1-(4-cyanophenyl)-6-methyl-4-oxo-N-(2-oxo-2,3,4,5-tetrahydro-1H-benzo[b]-azepin-3-yl)-1,4-dihydropyridazine-3-carboxamide]	0.085	0.292
Cc1cc(=O)c(C(=O)NC2CCc3ccccc3NC2=O)nn1-c1ccc(F)cc1 (centres unmarked) [Example 57, 1-(4-fluorophenyl)-6-methyl-4-oxo-N-(2-oxo-2,3,4,5-tetrahydro-1H-benzo[b]-azepin-3-yl)-1,4-dihydropyridazine-3-carboxamide]	0.02	0.041
Cc1cc(=O)c(C(=O)NC2CCc3ccccc3NC2=O)nn1-c1ccccc1F (centres unmarked) [Example 59, 1-(2-fluorophenyl)-6-methyl-4-oxo-N-(2-oxo-2,3,4,5-tetrahydro-1H-benzo[b]-azepin-3-yl)-1,4-dihydropyridazine-3-carboxamide]	0.0335	0.074
Cc1cc(=O)c(C(=O)N[C@H]2COc3cc(C#N)ccc3N(C)C2=O)nn1-c1ccc(C#N)cc1 [Example 60, (S)-N-(8-cyano-5-methyl-4-oxo-2,3,4,5-tetrahydrobenzo[b][1,4]oxazepin-3-yl)-1-(4-cyanophenyl)-6-methyl-4-oxo-1,4-dihydropyridazine-3-carboxamide]	0.0849	0.424
Cc1cc(=O)c(C(=O)N[C@H]2COc3cc(C#N)ccc3N(C)C2=O)nn1-c1cccc(F)c1 [Example 61, (S)-N-(8-cyano-5-methyl-4-oxo-2,3,4,5-tetrahydrobenzo[b][1,4]oxazepin-3-yl)-1-(3-fluorophenyl)-6-methyl-4-oxo-1,4-dihydropyridazine-3-carboxamide]	0.0574	0.088
Cc1ccc(-n2nc(C(=O)N[C@H]3COc4cc(C#N)ccc4N(C)C3=O)c(=O)cc2C)cc1F [Example 62, (S)-N-(8-cyano-5-methyl-4-oxo-2,3,4,5-tetrahydrobenzo[b][1,4]oxazepin-3-yl)-1-(3-fluoro-4-methylphenyl)-6-methyl-4-oxo-1,4-dihydropyridazine-3-carboxamide]	0.048	0.067
Cc1cccc(-n2nc(C(=O)NC3CCc4ccccc4NC3=O)c(=O)cc2C)c1 (centres unmarked) [Example 64, 6-methyl-4-oxo-N-(2-oxo-2,3,4,5-tetrahydro-1H-benzo[b]azepin-3-yl)-1-(m-tolyl)-1,4-dihydropyridazine-3-carboxamide]	0.0431	0.0778
